Experimental data reported in patent US10792301B2, “Therapeutic polysaccharide midi-GAGR and related materials and methods” (priority 2015, dated 2020).

What was measured:
Format in all cases: cell-based
[1] = system: Differentiated dopaminergic PC12 cells; test: LIVE/DEAD viability of differentiated PC12 cells exposed to 6-OHDA; settings: 1 μM for 6 h, then 30 μM 6-OHDA for 24 h
Method: Differentiated dopaminergic PC12 cells and primary mouse embryonic cortical neurons (E17, DIV14) were treated with mock (H2O) or 1 μM of dextran, alginate, HA-GAGR or midi-GAGR for 6 h and insulated by oxidative stressors (30 μM 6-OHDA [PC12] and 10 μM amyloid β peptide [cortical neurons]) for 24 h.

[2] = system: Mouse cortical neurons (E17, DIV5); test: LIVE/DEAD assay, pre-treated mouse cortical neurons with 4HNE, H2O2 or Aβ42; settings: pre-treatment 24 h (1 μM midi-GAGR, dextran, alginate; 0.1 μM LA-GAGR; 0.01 μM HA-GAGR)
Source text: The protective effect of polysaccharides on primary cortical neurons from 4HNE, H2O2, and Aβ42 peptide (Sigma) was examined using LIVE/DEAD® Viability/Cytotoxicity Assay Kit (Life Technologies). Female pregnant mice (BALB/C, E17, Charles River Laboratories International, Inc.) or female pregnant SD rats (E17, bred in house) were anesthetized and dissected to obtain 8-9 embryos per animal. Cortical neurons were isolated from embryonic brains and differentiated on poly-L-lysine-coated coverslips in B27/neurobasal medium. For drug treatment before free radical treatment, mouse cortical neurons (5 days in vitro [DIV5.]) were treated with vehicle (H2O), 1 μM of 5 kD dextran (Sigma), alginate (Sigma), midi-GAGR, 0.01 μM of high acyl gellan gum (HA-GAGR, CPKelco Co.), or 0.1 μM of LA-GAGR for 24 h and then treated with 10 μM 4HNE or 50 μM H2O2 for 24 h, or 2 μM A[…]42 peptide for 48 h prior to viability/cytotoxicity assay. For drug co-treatment with free radicals, rat cortical neurons (DIV5) were treated with 1 μM of dextran, alginate, or midi-GAGR, 0.01 μM of HA-GAGR, or 0.1 μM of LA-GAGR along with either 10 μM 4HNE (24 h) or 2 μM Aβ42 peptide (48 h). To examine the extent to which midi-GAGR-mediated neuroprotection depends on FGFR1, rat cortical neurons (E17, DIV5) were pre-treated with 4 μM SU5402 (Sigma) for 6 h and treated with 10 μM 4HNE and either vehicle or 1 μM midi-GAGR for 24 h prior to cell viability/cytotoxicity assay. As controls, neurons were treated with SU5402, midi-GAGR, 4HNE, 4HNE plus midi-GAGR, or SU5402 plus midi-GAGR.
For cell viability/cytotoxicity measurement, neurons on glass coverslips were incubated in 1×PBS containing 2 μM calcein AM (live cells: green) and 4 μM ethidium homodimer-1 (dead cells: red) for 10 min at 37° C. Immediately thereafter, neurons were imaged by 10×objective using a fluorescence Olympus IX71 microscope (Olympus America Inc., Center Valley, Pa.) and, for the acquisition of high-quality images, using TCS SP5 multi-photon laser scanning confocal microscope.
Midi-GAGR attenuated neurite atrophy caused by free reactive radicals. It is now shown herein that midi-GAGR protect neurons from the death caused by free radical insults. The extent to which midi-GAGR protects the primary culture of rodent cortical neurons from 4HNE and H2O2 was determined. In addition to the radicals, amyloid β peptide (Aβ42) was also tested. Aβ42 peptide is a major causative factor that causes oxidative stress and neuron death. Mouse cortical neurons (E17, DIV5) were treated with 10 μM 4HNE (24 h), 50 μM H2O2 (24 h), or 2 μM Aβ42 peptide (48 h) after the treatment of the neurons with vehicle (H2O), midi-GAGR (1 μM), dextran (1 μM), alginate (1 μM), LA-GAGR (0.1 μM), or HA-GAGR (0.01 μM) for 24 h. The concentrations of 4HNE, H2O2, and Aβ42 peptide were chosen according to their patho-physiological concentrations. The concentrations of LA-GAGR and HA-GAGR were chosen because, within the same volume, the total numbers of sugar units in the polysaccharides at the concentrations are close to that of 1 μM midi-GAGR. The viability of neurons was assessed using LIVE/DEAD® Viability/Cytotoxicity Assay Kit in which membrane-permeant calcein AM is cleaved by esterase in live cells, thus yielding green fluorescence, and membrane-impermeant ethidium homodimer-1 stains the nucleic acids of plasma membrane-compromised cells with red fluorescence. The numbers of green (live) and red (dead) neurons in each condition were counted using Metamorph. Although the intensities of green fluorescent signals in neurons treated with either free radicals or Aβ42 peptide were weak, the neurons were included in the counting. About 8-9% of vehicle-treated neurons died during the process of live/dead cell assay (FIGS. 23A-23F, FIGS. 24A-24C).

[3] = system: primary mouse cortical neurons (E17, DIV4); test: Neurite outgrowth in primary mouse cortical neurons; settings: 2 days; 1 μM midi-GAGR, dextran, alginate; 0.1 μM LA-GAGR; 0.01 μM HA-GAGR
Method: To analyze the effect of polysaccharides on neurite outgrowth, primary mouse cortical neurons were treated with vehicle (H2O) or 1 μM of dextran, alginate, or midi-GAGR, 0.01 μM of HA-GAGR, or 0.1 μM of LA-GAGR for 2 days prior to immunocytochemistry using anti-α-tubulin antibody and secondary Alexa488nm antibody. An etched grid coverslip containing 200 numbered boxes was used to select neurons objectively for image acquisition and analysis. A total of 24 boxes were randomly selected per treatment group. All the neurons having total neurite length longer than 4 times of the diameter of neuron cell body were chosen for image analysis. The total length of the neurites of each neuron was measured using Metamorph and used to calculate average total neurite length. To examine the effect of polysaccharides on the phosphorylation (activation) of nuclear CREB, neurons were stained with anti-pCREB antibody (Abcam & Santa Cruz biotechnologies, 2nd antibody with Alexa568nm), anti-α-tubulin antibody (Sigma, 2nd antibody with Alexa488nm), and DAPI (Sigma) after two-day incubation with vehicle (H2O) or 1 μM of dextran, alginate, or midi-GAGR, 0.01 μM of HA-GAGR, or 0.1 μM of LA-GAGR. […] The images of neurons on coverslips were taken by confocal microscopy at the same gain (850), offset (˜0.01) and exposure time (2 sec). The intensity of the staining of nuclear pCREB was measured using Metamorph and used to calculate average intensity. In addition, the phosphorylation of CREB in the cytosols of mouse cortical neurons treated with polysaccharides were detected by immunoblotting. Primary mouse neurons were dissected from 16 mouse embryos (E17) and plated in the wells of 6-well plates (1×10^6 cells/well), differentiated for 6 days, and treated with polysaccharides for 48 h. […] The protein bands on blots recognized by anti-pCREB (Santa Cruz Biotechnologies) and anti-CREB antibodies were detected on Amersham Hyperfilm™ ECL films (GE Healthcare Life Science) using SuperSignal® West Pico Chemiluminescent Substrate (Thermo Scientific).

dextran
6-OHDA-induced cell death [1]: did not
neuron death after Aβ42 peptide ([2]; 2 μM Aβ42 48 h, vehicle about 30%): did not decrease
neuron death after H2O2 ([2]; 50 μM H2O2 24 h, vehicle ~25%): did not reduce
fold change in average total neurite length compared to vehicle [3]: did not enhance neuritogenesis
